# According to DBAASP:
# Assays:
# Assay in all cases: ≥ marks a high value that may be exact or a test limit, other limits are often not marked, values filed in µg/mL are converted to µM
# [1] = system: Staphylococcus aureus ATCC 2592
# [2] = system: Bacillus subtilis ATCC 6633
# [3] = system: Staphylococcus aureus
# [4] = system: Candida albicans
# [5] = system: Escherichia coli
# [6] = system: Bacillus subtilis
# [7] = system: Candida albicans ATCC 2002
# [8] = system: Escherichia coli ATCC 25922
# [9] = system: Salmonella enterica subsp. enterica serovar Typhimurium ATCC 14028
# [10] = system: Staphylococcus aureus ATCC 25923
# [11] = system: Klebsiella pneumoniae
# [12] = system: Pseudomonas aeruginosa ATCC 27853
# [13] = system: Pseudomonas aeruginosa PAO1
# [14] = system: Staphylococcus aureus USA 300
# [15] = system: Staphylococcus aureus ATCC 29213
# [16] = system: Candida albicans ATCC 90028
# [17] = system: Acinetobacter baumannii
# [18] = system: Enterococcus faecalis ATCC 29212
compound,measurement,setting,value
CC[C@H](C)[C@H](NC(=O)CNC(=O)[C@H](C)NC(=O)[C@@H](NC(=O)[C@H](CC(C)C)NC(=O)CNC(=O)[C@@H]1CCCN1C(=O)[C@H](CC(C)C)NC(=O)[C@@H](N)Cc1ccccc1)[C@@H](C)CC)C(=O)N[C@@H](C)C(=O)N[C@@H](CCCCN)C(=O)N[C@@H](CCSC)C(=O)N[C@@H](CC(C)C)C(N)=O [FLPGLIAGIAKML],MIC,[1],9.3 µM
same,MIC,[2],18.6 µM
CC[C@H](C)[C@H](NC(=O)[C@H](Cc1cnc[nH]1)NC(=O)[C@H](CCCCN)NC(=O)[C@@H](NC(=O)[C@@H](NC(=O)[C@H](CC(=O)O)NC(=O)[C@H](CC(C)C)NC(=O)[C@H](Cc1ccccc1)NC(=O)CN)C(C)C)C(C)C)C(=O)NCC(=O)N[C@@H](CCCCN)C(=O)N[C@@H](C)C(=O)N[C@@H](C)C(=O)N[C@@H](CC(C)C)C(=O)NCC(=O)N[C@@H](C)C(=O)N[C@H](C(=O)N[C@H](C(=O)N[C@@H](Cc1cnc[nH]1)C(=O)N[C@@H](CC(C)C)C(=O)N[C@H](C(=O)N[C@@H](CC(N)=O)C(=O)N[C@@H](CCC(N)=O)C(N)=O)[C@@H](C)CC)[C@@H](C)O)C(C)C [GFLDVVKHIGKAALGAVTHLINQ],MIC,[3],13.3 µM
same,MIC,[4],13.3 µM
same,MIC,[5],13.3 µM
CC[C@H](C)[C@H](NC(=O)[C@H](CCCN=C(N)N)NC(=O)[C@H](CC(C)C)NC(=O)CNC(=O)[C@H](CCCCN)NC(=O)CNC(=O)[C@@H]1CCCN1C(=O)[C@H](CC(C)C)NC(=O)[C@H](CC(N)=O)NC(=O)[C@@H]1CCCN1C(=O)[C@H](CO)NC(=O)[C@H](Cc1ccccc1)NC(=O)CN)C(=O)N[C@@H](CO)C(=O)O [GFSPNLPGKGLRIS],MIC,[3],> 69.3 µM
same,MIC,[4],34.7 µM
CC[C@H](C)[C@H](NC(=O)[C@H](CCCCN)NC(=O)[C@H](CC(N)=O)NC(=O)[C@H](CC(C)C)NC(=O)[C@@H](NC(=O)[C@@H](NC(=O)[C@@H](NC(=O)[C@H](C)NC(=O)[C@H](C)NC(=O)[C@H](CC(N)=O)NC(=O)[C@H](CCCCN)NC(=O)[C@H](CC(C)C)NC(=O)CNC(=O)[C@H](CCC(=O)O)NC(=O)[C@H](CCCCN)NC(=O)[C@@H](NC(=O)[C@H](CO)NC(=O)[C@H](CC(=O)O)NC(=O)[C@H](Cc1c[nH]c2ccccc12)NC(=O)[C@H](Cc1ccccc1)NC(=O)CN)C(C)C)C(C)C)[C@@H](C)O)[C@@H](C)CC)C(=O)N[C@@H](CCCCN)C(=O)N[C@H]1CSSC[C@@H](C(=O)N2CCC[C@H]2C(=O)N2CCC[C@H]2C(=O)N[C@@H](C)C(=O)O)NC(=O)[C@H](CCC(=O)O)NC(=O)[C@H](CO)NC(=O)[C@H]([C@@H](C)CC)NC(=O)[C@H](CCCCN)NC1=O [GFWDSVKEGLKNAAVTILNKIKCKISECPPA],MIC,[6],29.8 µM
same,MIC,[7],3.72 µM
same,MIC,[8],14.9 µM
same,MIC,[1],14.9 µM
CC[C@H](C)[C@H](NC(=O)CN)C(=O)NCC(=O)N[C@@H](CCCCN)C(=O)N[C@@H](Cc1cnc[nH]1)C(=O)N[C@H](C(=O)NCC(=O)N[C@@H](CCCCN)C(=O)N[C@@H](C)C(=O)N[C@@H](CC(C)C)C(=O)N[C@@H](CCCCN)C(=O)NCC(=O)N[C@@H](CC(C)C)C(=O)N[C@@H](CCCCN)C(=O)NCC(=O)N[C@@H](CC(C)C)C(=O)N[C@@H](CC(C)C)C(=O)N[C@@H](CCCCN)C(=O)NCC(=O)N[C@@H](CC(C)C)C(=O)NCC(=O)N[C@@H](CCC(=O)O)C(=O)N[C@@H](CS)C(=O)O)C(C)C [GIGKHVGKALKGLKGLLKGLGEC],MIC,[9],1 µM
same,MIC,[10],≥ 128 µM
same,MIC,[11],1 µM
same,MIC,[8],0.707 µM
same,MIC,[12],2 µM
CC(C)C[C@H](NC(=O)[C@H](CC(C)C)NC(=O)[C@H](CCCCN)NC(=O)CNC(=O)[C@H](C)NC(=O)[C@H](C)NC(=O)[C@H](CCCCN)NC(=O)[C@H](C)NC(=O)[C@H](C)NC(=O)[C@H](CO)NC(=O)[C@H](CC(C)C)NC(=O)[C@H](CC(C)C)NC(=O)CN)C(N)=O [GLLSAAKAAGKLL],MIC,[13],> 25 µM
same,MIC,[14],25 µM
same,MIC,[8],> 25 µM
CC(C)C[C@H](NC(=O)[C@H](CC(C)C)NC(=O)[C@H](CCCCN)NC(=O)CNC(=O)[C@H](CC(C)C)NC(=O)[C@H](CC(C)C)NC(=O)[C@H](CO)NC(=O)[C@H](CC(C)C)NC(=O)[C@H](CO)NC(=O)[C@H](CC(C)C)NC(=O)[C@H](CC(C)C)NC(=O)CN)C(N)=O [GLLSLSLLGKLL],MIC,[13],> 25 µM
same,MIC,[14],12.5 µM
same,MIC,[8],25 µM
CC[C@H](C)[C@H](NC(=O)[C@H](C)NC(=O)[C@@H](N)CCCCN)C(=O)N[C@H](C(=O)N[C@@H](CCC(N)=O)C(=O)N[C@@H](CCCN=C(N)N)C(=O)N[C@H](C(=O)N[C@@H](CCCCN)C(=O)N[C@@H](CC(=O)O)C(=O)N[C@@H](Cc1ccccc1)C(=O)N[C@@H](CC(C)C)C(=O)N[C@@H](CCCN=C(N)N)C(=O)O)[C@@H](C)CC)C(C)C [KAIVQRIKDFLR],MIC,[15],40 µM
same,MIC,[16],≥ 40 µM
same,MIC,[8],40 µM
same,MIC,[12],40 µM
CC[C@H](C)[C@H](NC(=O)[C@H](CCCN=C(N)N)NC(=O)[C@@H](N)CCCCN)C(=O)N[C@H](C(=O)N[C@@H](CCC(N)=O)C(=O)N[C@@H](CCCN=C(N)N)C(=O)N[C@@H](C)C(=O)N[C@@H](CCCCN)C(=O)N[C@@H](CC(=O)O)C(=O)N[C@@H](Cc1ccccc1)C(=O)N[C@@H](CC(C)C)C(=O)N[C@@H](CCCN=C(N)N)C(=O)O)C(C)C [KRIVQRAKDFLR],MIC,[15],40 µM
same,MIC,[16],≥ 40 µM
same,MIC,[8],40 µM
same,MIC,[12],40 µM
CC(C)C[C@H](NC(=O)[C@H](CC(C)C)NC(=O)[C@H](CCCNC(=N)N)NC(=O)[C@H](CCCCN)NC(=O)[C@H](CCCNC(=N)N)NC(=O)[C@H](CC(C)C)NC(=O)[C@H](CCCCN)NC(=O)[C@H](CCCNC(=N)N)NC(=O)[C@H](CC(C)C)NC(=O)[C@H](CC(C)C)NC(=O)[C@H](CC(C)C)NC(=O)[C@H](CCCNC(=N)N)NC(=O)[C@H](CCCCN)NC(=O)[C@H](CCCNC(=N)N)NC(=O)[C@H](CC(C)C)NC(=O)[C@H](CCCCN)NC(=O)[C@H](CCCNC(=N)N)NC(=O)[C@@H](N)CC(C)C)C(=O)O [LRKLRKRLLLRKLRKRLL],MIC,[15],> 13.5 µM
same,MIC,[17],13.5 µM
same,MIC,[18],> 13.5 µM
same,MIC,[8],5.06 µM
same,MIC,[12],6.74 µM
CC[C@H](C)[C@H](NC(=O)[C@H](CCC(N)=O)NC(=O)[C@H](CCCCN)NC(=O)[C@H](Cc1c[nH]c2ccccc12)NC(=O)[C@H](CC(C)C)NC(=O)[C@H](CCC(N)=O)NC(=O)CNC(=O)[C@H](CC(C)C)NC(=O)[C@H](CCCCN)NC(=O)[C@H](C)NC(=O)[C@H](CCC(=O)O)NC(=O)[C@H](CCCCN)NC(=O)[C@@H](NC(=O)[C@H](CCSC)NC(=O)[C@@H](NC(=O)[C@@H](NC(=O)[C@@H](NC(=O)[C@@H](N)CO)[C@@H](C)CC)[C@@H](C)CC)[C@@H](C)O)[C@@H](C)O)C(=O)N[C@@H](C)C(=O)N[C@H]1CSSC[C@@H](C(=O)O)NC(=O)[C@H]([C@@H](C)O)NC(=O)[C@H](CC(N)=O)NC(=O)[C@H](Cc2ccc(O)cc2)NC(=O)[C@H](CC(C)C)NC(=O)[C@H](CCCN=C(N)N)NC1=O [SIITMTKEAKLGQLWKQIACRLYNTC],MIC,[6],≥ 39.8 µM
same,MIC,[7],19.9 µM
same,MIC,[8],39.8 µM
same,MIC,[1],4.98 µM
